Experimental data as given in the supplement of paper PMC10307832.

Assays:
Experiment in all cases: relative viability (nuclei count vs DMSO), 5 days (fraction); higher = more cells survive
[1] = compound: Cn1cncc1[C@@](N)(c1ccc(Cl)cc1)c1ccc2c(c1)c(-c1cccc(Cl)c1)cc(=O)n2C [Tipifarnib] + CS(=O)(=O)N1CCN(Cc2cc3nc(-c4cccc5[nH]ncc45)nc(N4CCOCC4)c3s2)CC1 [Pictilisib] (partner 1 µM)
Procedure, shortened: (§1)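 The day after seeding in 1536-well plates, lung cancer cell lines were treated by pin tool with a single drug, or with a fixed anchor-drug dose together with five library-drug doses (not always all listed) in √10 steps. After 5 days, a combined fix-and-stain solution (final 0.05% Triton X-100, 1% formaldehyde, 1 ug/ml Hoechst) was added. Nuclei counted on 4× images gave relative viability as treated counts over vehicle counts, reported as the median of duplicate plates.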

[2] = compound: Cn1cncc1[C@@](N)(c1ccc(Cl)cc1)c1ccc2c(c1)c(-c1cccc(Cl)c1)cc(=O)n2C [Tipifarnib] + CC(C)C[C@H](NC(=O)[C@H](Cc1ccccc1)NC(=O)c1cnccn1)B(O)O [Bortezomib] (partner 0.002 µM)
Procedure, shortened: as §1

[3] = compound: Cn1cncc1[C@@](N)(c1ccc(Cl)cc1)c1ccc2c(c1)c(-c1cccc(Cl)c1)cc(=O)n2C [Tipifarnib] + CC(=O)c1c(C)c2cnc(Nc3ccc(N4CCNCC4)cn3)nc2n(C2CCCC2)c1=O [Palbociclib] (partner 0.5 µM)
Procedure, shortened: as §1

[4] = compound: Cn1cncc1[C@@](N)(c1ccc(Cl)cc1)c1ccc2c(c1)c(-c1cccc(Cl)c1)cc(=O)n2C [Tipifarnib] + COc1cc2c(Oc3ccc(NC(=O)C4(C(=O)Nc5ccc(F)cc5)CC4)cc3F)ccnc2cc1OCCCN1CCOCC1 [Foretinib] (partner 0.25 µM)
Procedure, shortened: as §1

Row | Cell Line | relative viability ([1]; first compound 0.01 µM) | relative viability ([1]; first compound 0.03162 µM) | relative viability ([1]; first compound 0.1 µM) | relative viability ([1]; first compound 0.3162 µM) | relative viability ([1]; first compound 1 µM) | relative viability ([2]; first compound 0.01 µM) | relative viability ([2]; first compound 0.03162 µM) | relative viability ([2]; first compound 0.1 µM) | relative viability ([2]; first compound 0.3162 µM) | relative viability ([2]; first compound 1 µM) | relative viability ([3]; first compound 0.01 µM) | relative viability ([3]; first compound 0.03162 µM) | relative viability ([3]; first compound 0.1 µM) | relative viability ([3]; first compound 0.3162 µM) | relative viability ([3]; first compound 1 µM) | relative viability ([4]; first compound 0.01 µM) | relative viability ([4]; first compound 0.03162 µM) | relative viability ([4]; first compound 0.1 µM) | relative viability ([4]; first compound 0.3162 µM) | relative viability ([4]; first compound 1 µM)
1 | 201T | 0.633 | 0.682 | 0.664 | 0.559 | 0.551 | 1.12 | 1.14 | 1.06 | 1.05 | 0.788 | 0.352 | 0.373 | 0.357 | 0.341 | 0.354 | 1.13 | 1.09 | 1.02 | 0.839 | 0.875
2 | A-427 | 0.675 | 0.511 | 0.673 | 0.677 | 0.373 | 0.987 | 0.941 | 0.964 | 0.856 | 0.634 | 0.527 | 0.535 | 0.477 | 0.448 | 0.466 | 1.19 | 1.06 | 1.06 | 0.873 | 0.927
3 | ABC-1 | 0.808 |  | 0.623 | 0.583 | 0.492 | 0.31 |  | 0.212 | 0.253 | 0.291 | 0.733 | 0.689 | 0.694 | 0.639 | 0.604 | 1.28 |  | 0.965 | 0.762 | 0.843
4 | BEN | 0.543 | 0.587 | 0.543 | 0.472 | 0.417 | 0.81 | 0.81 | 0.628 | 0.652 | 0.604 | 0.587 | 0.475 | 0.488 | 0.455 | 0.451 | 0.609 | 0.686 | 0.529 | 0.484 | 0.379
5 | CAL-12T | 0.388 | 0.329 | 0.384 | 0.414 | 0.32 | 0.791 | 0.75 | 0.714 | 0.719 | 0.318 | 0.512 | 0.302 | 0.377 | 0.21 | 0.13 | 1.09 | 0.885 | 0.727 | 0.469 | 0.536
6 | COR-L23 | 0.816 | 0.509 | 0.458 | 0.383 | 0.298 | 0.914 | 0.647 | 0.708 | 0.501 | 0.486 | 0.302 | 0.222 | 0.198 | 0.153 | 0.173 | 1.14 | 0.839 | 0.699 | 0.618 | 0.579
7 | COR-L 105 | 0.47 | 0.33 | 0.357 | 0.353 | 0.355 | 0.869 | 0.591 | 0.706 | 0.444 | 0.403 | 0.403 | 0.385 | 0.416 | 0.408 | 0.365 | 1.18 | 0.872 | 0.897 | 0.504 | 0.604
8 | Calu-6 | 0.891 | 0.641 | 0.555 | 0.442 | 0.386 | 0.928 | 0.662 | 0.634 | 0.529 | 0.544 |  |  |  |  |  | 0.886 | 0.62 | 0.698 | 0.518 | 0.424
9 | ChaGo-K-1 | 0.694 | 0.8 | 0.71 | 0.618 | 0.542 | 0.976 | 1 | 0.954 | 0.978 | 0.53 | 0.996 | 0.937 | 0.932 | 0.885 | 0.758 | 1.06 | 0.873 | 0.848 | 0.852 | 0.665
10 | EKVX | 0.477 | 0.4 | 0.455 | 0.339 | 0.355 | 1.13 | 1.01 | 0.903 | 0.699 | 0.607 | 0.396 | 0.362 | 0.35 | 0.281 | 0.284 | 0.818 | 0.767 | 0.811 | 0.705 | 0.324
11 | EMC-BAC-2 | 0.573 | 0.509 | 0.467 | 0.525 | 0.366 | 1.03 | 1 | 0.937 | 0.924 | 0.749 | 0.501 | 0.469 | 0.494 | 0.463 | 0.465 | 1.06 | 0.921 | 1 | 0.9 | 0.82
12 | EPLC-272H | 0.339 | 0.265 | 0.392 | 0.283 | 0.186 | 0.987 | 0.195 | 0.634 | 0.577 | 0.311 | 0.358 | 0.265 | 0.328 | 0.298 | 0.263 | 0.68 | 0.631 | 0.569 | 0.443 | 0.257
13 | H3255 | 0.565 | 0.449 | 0.416 | 0.375 | 0.395 | 0.622 | 0.647 | 0.554 | 0.561 | 0.344 | 0.331 | 0.276 | 0.27 | 0.287 | 0.258 | 0.921 | 0.977 | 0.805 | 0.636 | 0.508
14 | HARA | 0.403 | 0.373 | 0.313 | 0.362 | 0.148 | 1.16 | 0.938 | 1.26 | 1.12 | 0.55 | 0.32 | 0.32 | 0.238 | 0.217 | 0.265 | 1.1 | 0.828 | 0.96 | 0.951 | 0.269
15 | HCC-15 | 0.629 | 0.547 | 0.556 | 0.426 | 0.224 | 0.921 | 0.746 | 0.868 | 0.613 | 0.196 | 0.694 | 0.653 | 0.566 | 0.417 | 0.405 | 0.967 | 0.917 | 0.785 | 0.635 | 0.595
16 | HCC-44 | 0.667 | 0.619 | 0.451 | 0.262 | 0.363 | 0.87 | 0.684 | 0.78 | 0.609 | 0.461 | 0.952 | 0.921 | 0.945 | 0.92 | 0.926 |  |  |  |  | 
17 | HCC-78 | 0.19 | 0.24 | 0.191 | 0.2 | 0.176 | 0.606 | 0.45 | 0.46 | 0.469 | 0.462 | 0.478 | 0.54 | 0.558 | 0.454 | 0.456 | 0.58 | 0.546 | 0.491 | 0.513 | 0.461
